According to ChEMBL document CHEMBL1201862, “PubChem BioAssay data set” (2004):
Activity calls are given as the source filed them.

What was measured:
[1] = biological target: T1, Voltage-gated N-type calcium channel alpha-1B subunit/Amyloid beta A4 precursor protein-binding family A member 1 (Homo sapiens, UniProt Q00975+Q02410); assay type: protein assay
[2] = A cytotoxicity screen of small molecule inhibitors of the PhoP region in Salmonella typhi identified in the primary screen. [Related pubchem assays: 1850, 1864, 1985 ]; assay type: functional
[3] = biological target: T1, Voltage-gated N-type calcium channel alpha-1B subunit/Amyloid beta A4 precursor protein-binding family A member 1; assay type: protein assay; remark: listed apart in the source
[4] = biological target: Glucose-6-phosphate 1-dehydrogenase (Homo sapiens, UniProt P11413); test: human G6PD enzyme inhibitors, dose response, selectivity assay for P. falciparum G6PD inhibitor project, biochemical, fluorescence (AID 504792); assay type: functional
[5] = biological target: T2, Runt-related transcription factor 1/Core-binding factor subunit beta (Homo sapiens, UniProt Q01196+Q13951); test: inhibitors of RUNX1 Runt–CBFb-SMMHC binding, primary screen, biochemical, FRET, Cerulean-Runt, Venus-CBFb-SMMHC, uHTS (AID 1434); assay type: protein assay;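 also: partner is the CBFb-SMMHC leukemia fusion protein rather than wild-type CBFb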
[6] = biological target: T3, Fatty acid synthase (Homo sapiens, UniProt P49327); test: FAS thioesterase domain inhibitors, dose response, biochemical, kinetic fluorescence intensity (AID 624326); assay type: functional;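 also: rate of fluorescence rise from hydrolysis of a fluorogenic O-methyl fluorescein ester substrate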
[7] = biological target: T3, Fatty acid synthase; test: FAS thioesterase domain inhibitors, dose response, biochemical, endpoint fluorescence intensity, uHTS hits (AID 624327); assay type: functional;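 also: fluorescence from hydrolysis of an O-methyl fluorescein acyl ester substrate by the enzyme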
[8] = biological target: T2, Runt-related transcription factor 1/Core-binding factor subunit beta; test: inhibitors of RUNX1 Runt–CBFb-SMMHC binding, biochemical, TR-FRET (AID 1438); assay type: protein assay
[9] = test system: Vibrio harveyi; test: Quorum Sensing, LuxS, LuxPQ Measured in Microorganism System Using Plate Reader - 2035-01_Inhibitor_DoseNoFile_DryPowder_Activity. [Related pubchem assays (depositor defined):AID2106]; assay type: functional, organism-based
[10] = test system: Vibrio harveyi; test: inhibitors of AI-2 quorum sensing in V. harveyi, dose response, LuxS, LuxPQ, dry powder, set 2 (AID 493072); assay type: functional, organism-based
[11] = test system: HEK293; test: NOD1 signaling inhibitors, primary screen, cell-based, luminescence, uHTS (AID 1578); assay type: functional; settings: Homo sapiens
[12] = biological target: Nucleotide-binding oligomerization domain-containing protein 2 (Homo sapiens, UniProt Q9HC29); test: NOD2 signaling inhibitors, cell-based, luminescence, uHTS, HEK293 (AID 1566); assay type: functional
[13] = test system: HEK293; test: NOD2 signaling inhibitors in MDP-stimulated cells, cell-based, uHTS, luminescence (AID 2001); assay type: functional; settings: Homo sapiens
[14] = test system: HEK293; test: cells; assay type: functional, cell-based; settings: Homo sapiens
[15] = test system: HEK293; test: cells; assay type: functional, cell-based; settings: Homo sapiens; remark: listed apart in the source
[16] = test system: HEK293; test: cells; assay type: functional, cell-based; settings: Homo sapiens; remark: listed apart in the source
[17] = biological target: T4, Cannabinoid receptor 2 (Homo sapiens, UniProt P34972); test: SAR analysis of agonists of the Cannabinoid Receptor 2 using an Image-Based Assay - Set 2. [Related pubchem assays (depositor defined):AID1961, AID1965]; assay type: functional
[18] = biological target: T4, Cannabinoid receptor 2; test: SAR analysis of antagonists of the Cannabinoid Receptor 2 using an Image-Based Assay - Set 2. [Related pubchem assays (depositor defined):AID1961, AID1965]; assay type: functional
[19] = biological target: G-protein coupled receptor 55 (Homo sapiens, UniProt Q9Y2T6); test: SAR analysis of selective Agonists of GPR55 using an Image-Based Assay - Set 2. [Related pubchem assays (depositor defined):AID1961, AID1965]; assay type: functional
[20] = biological target: T5, Cannabinoid receptor 1 (Homo sapiens, UniProt P21554); test: SAR analysis of antagonists of the Cannabinoid Receptor 1 using an Image-Based Assay - Set 3. [Related pubchem assays (depositor defined):AID1961, AID1965]; assay type: functional
[21] = biological target: T6, G-protein coupled receptor 35 (Homo sapiens, UniProt Q9HC97); test: SAR analysis of Agonists of the GPR35 Receptor using an Image-Based Assay - Set 3. [Related pubchem assays (depositor defined):AID1961, AID1965]; assay type: functional
[22] = biological target: T6, G-protein coupled receptor 35; test: SAR analysis of Antagonists of the GPR35 Receptor using an Image-Based Assay - Set 4. [Related pubchem assays (depositor defined):[…]]; assay type: functional
[23] = biological target: T5, Cannabinoid receptor 1; test: SAR analysis of agonists of the Cannabinoid Receptor 1 using an Image-Based Assay - Set 3. [Related pubchem assays (depositor defined):AID1961, AID1965]; assay type: functional

T5 sequence (P21554 whole entry): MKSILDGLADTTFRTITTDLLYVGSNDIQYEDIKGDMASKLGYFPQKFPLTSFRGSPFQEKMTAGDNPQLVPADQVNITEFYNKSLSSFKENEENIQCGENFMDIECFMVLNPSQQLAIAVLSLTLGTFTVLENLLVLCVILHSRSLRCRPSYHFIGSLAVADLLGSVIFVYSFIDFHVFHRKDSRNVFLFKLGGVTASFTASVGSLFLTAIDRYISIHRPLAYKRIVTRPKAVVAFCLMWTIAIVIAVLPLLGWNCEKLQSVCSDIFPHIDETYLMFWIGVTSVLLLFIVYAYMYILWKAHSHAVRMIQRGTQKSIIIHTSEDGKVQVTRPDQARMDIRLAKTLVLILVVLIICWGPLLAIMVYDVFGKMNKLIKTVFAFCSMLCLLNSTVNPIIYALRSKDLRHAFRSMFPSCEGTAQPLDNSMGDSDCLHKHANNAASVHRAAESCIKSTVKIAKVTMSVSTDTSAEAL
T6 sequence (Q9HC97 whole entry): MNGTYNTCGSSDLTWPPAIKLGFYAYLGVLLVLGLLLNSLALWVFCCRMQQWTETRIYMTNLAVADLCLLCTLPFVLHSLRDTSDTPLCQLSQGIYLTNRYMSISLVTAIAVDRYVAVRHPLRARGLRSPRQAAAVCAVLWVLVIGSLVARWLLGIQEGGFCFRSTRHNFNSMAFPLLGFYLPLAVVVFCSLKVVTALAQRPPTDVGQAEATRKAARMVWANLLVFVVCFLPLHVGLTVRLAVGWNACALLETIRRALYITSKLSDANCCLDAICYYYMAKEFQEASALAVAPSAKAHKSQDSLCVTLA
T1 sequence (Q00975 whole entry): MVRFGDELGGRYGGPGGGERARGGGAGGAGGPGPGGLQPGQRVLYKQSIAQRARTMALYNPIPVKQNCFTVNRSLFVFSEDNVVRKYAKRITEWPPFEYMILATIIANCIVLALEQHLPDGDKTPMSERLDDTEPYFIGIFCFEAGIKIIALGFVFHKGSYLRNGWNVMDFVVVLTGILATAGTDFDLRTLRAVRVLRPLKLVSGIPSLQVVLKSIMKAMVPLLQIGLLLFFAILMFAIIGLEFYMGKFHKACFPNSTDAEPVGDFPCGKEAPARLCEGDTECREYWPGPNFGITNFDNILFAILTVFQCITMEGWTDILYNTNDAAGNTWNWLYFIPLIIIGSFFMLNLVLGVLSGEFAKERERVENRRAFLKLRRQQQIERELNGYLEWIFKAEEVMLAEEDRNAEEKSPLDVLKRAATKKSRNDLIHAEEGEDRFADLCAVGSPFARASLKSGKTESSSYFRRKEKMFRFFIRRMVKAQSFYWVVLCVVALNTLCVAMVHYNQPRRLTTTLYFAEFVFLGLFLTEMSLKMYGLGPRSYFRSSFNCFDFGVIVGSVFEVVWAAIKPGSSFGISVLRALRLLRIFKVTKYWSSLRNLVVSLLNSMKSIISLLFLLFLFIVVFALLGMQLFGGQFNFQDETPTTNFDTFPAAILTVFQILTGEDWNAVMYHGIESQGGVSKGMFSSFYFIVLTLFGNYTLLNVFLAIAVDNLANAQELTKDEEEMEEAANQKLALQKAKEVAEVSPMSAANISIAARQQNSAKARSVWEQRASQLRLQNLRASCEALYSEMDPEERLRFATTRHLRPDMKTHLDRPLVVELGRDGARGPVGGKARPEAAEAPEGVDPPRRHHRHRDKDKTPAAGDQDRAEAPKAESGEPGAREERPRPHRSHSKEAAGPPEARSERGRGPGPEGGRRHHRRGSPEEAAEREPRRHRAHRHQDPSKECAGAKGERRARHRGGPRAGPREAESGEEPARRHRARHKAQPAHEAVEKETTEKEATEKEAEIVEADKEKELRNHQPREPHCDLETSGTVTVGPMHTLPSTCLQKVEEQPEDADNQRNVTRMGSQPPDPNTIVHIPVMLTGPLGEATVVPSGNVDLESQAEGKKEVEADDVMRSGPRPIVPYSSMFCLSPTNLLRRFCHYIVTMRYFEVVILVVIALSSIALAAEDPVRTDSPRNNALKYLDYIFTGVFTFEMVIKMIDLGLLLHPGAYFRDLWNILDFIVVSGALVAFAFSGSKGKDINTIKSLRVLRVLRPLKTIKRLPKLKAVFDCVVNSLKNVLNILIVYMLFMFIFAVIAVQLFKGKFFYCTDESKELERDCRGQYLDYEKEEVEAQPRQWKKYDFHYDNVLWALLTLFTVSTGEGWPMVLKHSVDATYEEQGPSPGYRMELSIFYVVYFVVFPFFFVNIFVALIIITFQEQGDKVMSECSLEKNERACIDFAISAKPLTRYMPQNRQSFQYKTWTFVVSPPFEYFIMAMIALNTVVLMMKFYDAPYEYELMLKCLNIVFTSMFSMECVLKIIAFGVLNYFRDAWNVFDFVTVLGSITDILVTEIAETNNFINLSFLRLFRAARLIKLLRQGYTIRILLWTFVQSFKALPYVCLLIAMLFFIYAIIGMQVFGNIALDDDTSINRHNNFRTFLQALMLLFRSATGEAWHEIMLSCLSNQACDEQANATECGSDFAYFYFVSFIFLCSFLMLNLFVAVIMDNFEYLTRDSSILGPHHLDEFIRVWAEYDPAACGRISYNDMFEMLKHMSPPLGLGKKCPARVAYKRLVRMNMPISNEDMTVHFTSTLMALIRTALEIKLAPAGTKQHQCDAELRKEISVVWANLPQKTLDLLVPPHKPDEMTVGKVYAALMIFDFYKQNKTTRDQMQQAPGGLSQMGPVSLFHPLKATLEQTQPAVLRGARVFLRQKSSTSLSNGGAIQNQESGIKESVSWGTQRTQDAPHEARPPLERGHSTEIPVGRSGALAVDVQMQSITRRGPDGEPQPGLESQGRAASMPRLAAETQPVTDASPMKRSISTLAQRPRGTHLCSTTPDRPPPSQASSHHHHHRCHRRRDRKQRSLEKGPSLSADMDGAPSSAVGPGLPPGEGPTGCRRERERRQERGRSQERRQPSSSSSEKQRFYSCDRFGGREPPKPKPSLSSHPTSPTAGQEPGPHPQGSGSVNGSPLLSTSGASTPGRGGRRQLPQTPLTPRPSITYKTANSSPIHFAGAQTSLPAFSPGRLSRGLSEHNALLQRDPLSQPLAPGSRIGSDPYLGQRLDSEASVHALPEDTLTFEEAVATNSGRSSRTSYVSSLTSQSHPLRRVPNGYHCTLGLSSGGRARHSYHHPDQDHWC
T1 sequence (Q02410 whole entry): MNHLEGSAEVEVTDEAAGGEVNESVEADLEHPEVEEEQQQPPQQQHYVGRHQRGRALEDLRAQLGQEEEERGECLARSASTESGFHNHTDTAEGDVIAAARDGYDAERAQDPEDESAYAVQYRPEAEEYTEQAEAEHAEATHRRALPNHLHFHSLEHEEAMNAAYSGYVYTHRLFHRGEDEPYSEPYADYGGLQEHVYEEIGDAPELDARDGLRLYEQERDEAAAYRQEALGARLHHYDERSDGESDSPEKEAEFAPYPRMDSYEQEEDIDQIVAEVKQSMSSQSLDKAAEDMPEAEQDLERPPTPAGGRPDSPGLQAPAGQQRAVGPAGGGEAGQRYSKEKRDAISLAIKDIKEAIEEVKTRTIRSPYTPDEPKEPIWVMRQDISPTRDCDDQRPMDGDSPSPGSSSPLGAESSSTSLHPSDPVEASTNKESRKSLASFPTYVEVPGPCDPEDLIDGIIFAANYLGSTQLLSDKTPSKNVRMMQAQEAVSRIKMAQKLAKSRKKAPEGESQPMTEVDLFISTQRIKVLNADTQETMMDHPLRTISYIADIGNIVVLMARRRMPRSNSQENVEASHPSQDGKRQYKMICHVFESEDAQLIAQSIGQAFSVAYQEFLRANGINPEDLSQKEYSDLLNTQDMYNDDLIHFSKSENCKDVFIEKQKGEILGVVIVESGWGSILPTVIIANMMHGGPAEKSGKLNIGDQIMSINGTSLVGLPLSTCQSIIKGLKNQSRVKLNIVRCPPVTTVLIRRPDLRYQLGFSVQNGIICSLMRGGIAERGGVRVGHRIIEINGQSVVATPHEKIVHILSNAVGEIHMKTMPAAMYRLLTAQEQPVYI
T4 sequence (P34972 whole entry): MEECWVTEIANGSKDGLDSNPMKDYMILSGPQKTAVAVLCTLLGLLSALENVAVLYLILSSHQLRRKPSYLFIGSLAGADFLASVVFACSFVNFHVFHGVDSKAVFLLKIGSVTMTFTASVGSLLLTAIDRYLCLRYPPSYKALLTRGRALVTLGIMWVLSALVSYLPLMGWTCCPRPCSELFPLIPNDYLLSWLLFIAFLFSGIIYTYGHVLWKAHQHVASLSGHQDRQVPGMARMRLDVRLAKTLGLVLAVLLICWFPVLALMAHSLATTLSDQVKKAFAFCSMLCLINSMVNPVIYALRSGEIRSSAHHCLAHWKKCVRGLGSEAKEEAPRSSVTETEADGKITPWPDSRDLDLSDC
T2 sequence (Q01196 whole entry, the tested form may be a part): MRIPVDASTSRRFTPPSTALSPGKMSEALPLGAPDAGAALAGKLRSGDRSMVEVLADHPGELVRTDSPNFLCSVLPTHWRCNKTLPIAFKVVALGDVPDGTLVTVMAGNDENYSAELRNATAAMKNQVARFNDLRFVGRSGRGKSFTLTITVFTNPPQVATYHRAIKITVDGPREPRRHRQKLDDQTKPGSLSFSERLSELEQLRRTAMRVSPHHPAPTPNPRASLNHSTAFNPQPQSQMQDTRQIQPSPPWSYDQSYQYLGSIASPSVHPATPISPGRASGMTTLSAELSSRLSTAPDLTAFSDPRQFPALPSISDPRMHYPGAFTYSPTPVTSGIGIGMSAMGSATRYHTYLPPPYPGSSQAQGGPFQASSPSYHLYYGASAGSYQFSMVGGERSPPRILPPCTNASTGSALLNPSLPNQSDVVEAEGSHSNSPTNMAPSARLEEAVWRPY
T2 sequence (Q13951 whole entry, the tested form may be a part): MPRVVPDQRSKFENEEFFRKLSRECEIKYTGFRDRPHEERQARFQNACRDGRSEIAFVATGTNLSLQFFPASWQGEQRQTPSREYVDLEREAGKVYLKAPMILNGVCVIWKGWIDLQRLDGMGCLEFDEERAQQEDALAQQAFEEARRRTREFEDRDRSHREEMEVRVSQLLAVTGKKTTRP

What does the source list for `COc1cc(OC)c(C2CC(=O)N3CN(c4ccccc4)CSC3=C2C#N)cc1OC` (stereo not drawn)?
IC50 [1]: > 50 µM (inactive); EC50 [2]: > 50 µM (active); IC50 [3]: 6.01 µM (active); IC50 [4]: > 80 µM (inactive)

With `Cc1cccn2c(=O)c(/C=C(\C#N)C(N)=O)c(N3CCN(Cc4ccc5c(c4)OCO5)CC3)nc12` as the molecule, how does the IC50 [5] read?
The IC50 was > 100 µM (inactive).

What about the IC50 [6] of the same molecule?
The IC50 was 9.39 µM (active).

What about the IC50 [7] of the same molecule?
Its IC50 is 7.79 µM (active).

What about the IC50 [8] of the same molecule?
The IC50 was > 100 µM (inactive).

What does the source list for `CCc1ccc(S(=O)(=O)Nc2ccc(Br)cn2)cc1`?
AC50 [9]: 3.22 µM (active); AC50 [10]: 8.16 µM (active)

With `Cc1c(C(=O)N2CCN(c3ccc(F)cc3)CC2)sc2ncnc(N3CCN(c4ccccn4)CC3)c12` as the molecule, how does the EC50 [11] read?
Its EC50 is 5.71 µM (active).

What about the EC50 [12] of the same molecule?
The EC50 was 4.24 µM (active).

What about the IC50 [13] of the same molecule?
Its IC50 is 7.42 µM (inactive).

And the IC50 [14]?
The IC50 was 4.81 µM (active).

What about the IC50 [15] of the same molecule?
Its IC50 is 11.9 µM (active).

And the IC50 [16]?
Its IC50 is 16.8 µM (active).

For `CN(C)S(=O)(=O)c1ccc(N2CCCC2)c(C(=O)N2CCN(c3cccc(Cl)c3)CC2)c1`, which EC50 [17] is on record?
The EC50 was > 32 µM (inactive).

And the IC50 [18]?
The IC50 was > 32 µM (inactive).

And the EC50 [19]?
The EC50 was 0.608 µM (active).

And the IC50 [20]?
The IC50 was 27.1 µM (inactive).

And the EC50 [21]?
The EC50 was > 32 µM (inactive).

And the IC50 [22]?
The IC50 was > 32 µM (inactive).

What about the EC50 [23] of the same molecule?
Its EC50 is > 32 µM (inactive).
